We go through 1 molecule from patent US10106542B2, “Substituted 6,7-dihydropyrazolo[1,5-a]pyrazines as negative allosteric modulators of mGluR2 receptors” (Janssen Pharmaceutica NV, priority 2013, dated 2018).

SMILES strings stand for the structures. Bounds are passed on as bounds.

One assay deals with rats. As to the kind of experiment: Reversal of the effect of the mGluR2 PAM JNJ-42153605 on scopolamine-induced hyperlocomotion. The assay is classed as in vivo. The note with it: Rattus norvegicus, 1 h, test compound 60 min before recording, criterion total distance >1500 cm. A digest of the protocol: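 Rats pretreated with test compound or vehicle 60 min before recording, given JNJ-42153605 (20 mg/kg, i.v.) at 30 min prior, then scopolamine (0.16 mg/kg, i.v.) immediately before. Total distance travelled over the first 30 min was video-tracked. All-or-none scoring: reversal >1500 cm, normalization >4400 cm.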

A further assay concerns Male Long Evans rats. As to the kind of experiment: V-maze test (PCP-disrupted visual-spatial working memory). The note with it: p.o. 4 h before test. The assay is classed as in vivo, rat. From the text: The V-maze-test is a two-trial short term visual-spatial working memory task based on spontaneous exploration of a new and a familiar arm in a 2-arm maze (Embrechts et al. (2013) “Longitudinal characterization of the TauPS2APP mouse model of Alzheimer's disease in a two trial discrimination task of visuo-spatial recognition memory”, 45th European Brain and Behaviour Society Meeting 6-9 Sep. 2013, Munich, Abstract P202).
Male Long Evans rats (Janvier, France, body weight 280 to 295 g) were group housed in enriched individually ventilated cages and habituated to environmental conditions for 5 days. After acclimatization, animals were single housed for 4 days until testing. During this period animals were handled for 2 min per day and received sham dosing once a day for 3 days prior to the test. The V-maze consisted of two arms (L×W×H: 70×10×30 cm) at a 90° angle to each other to form a V-shaped maze connected by guillotine doors to a center zone. […] The animal's exploration of each arm was automatically quantified using Ethovision XT 7.0 (Noldus, The Netherlands). […] The time spent in the familiar and new arm respectively during the choice session was recorded for 5 min.
Co. No. 1 was evaluated in rats in a series of dose-response studies evaluating doses from 0.16 to 10 mg/kg. […]

Another assay relates to Male Wiga Wistar rats. As to the kind of experiment: Reversal of LY-404039-induced decrease of palpebral opening in apomorphine-challenged rats. The note with it: Rattus norvegicus, reversal of LY-404039-induced decrease of palpebral opening (cumulative score >26) in apomorphine challenged rats. Type of assay: in vivo. As for the experimental part: 6) Reversal of LY-404039-Induced Decrease of Palpebral Opening in Apomorphine-Challenged Rats.
Male Wiga Wistar rats (Crl:WI; Charles River Germany; 220±40 g) were housed under standard laboratory conditions (21±2° C.; 50-65% relative humidity; light-dark cycle set at 12 h; lights on at 6.00 h) and fasted overnight prior to the start of the experiments (tap water remained available ad libitum). During the test period, they were housed in individual cages. The local Ethical Committee approved all studies in compliance with the Declaration of Helsinki. Palpebral opening was scored every 5 min over the first hour after injection of apomorphine (1.0 mg/kg, i.v.) in animals either pretreated or not pretreated with LY-404039 (2.5 mg/kg, s.c.) at 1 h prior to the apomorphine injection. The animals were also pretreated with test compound or solvent at a predefined interval before apomorphine challenge. The score system was: (5) exophthalmos, (4) wide open, (3) open for three-quarters, (2) half open, (1) open for one-quarter, (0) closed. The scores for palpebral opening were cumulated over the 60-min observation period. A cumulative palpebral opening score >26 was selected for drug-induced reversal of the LY-404039-induced decrease of palpebral opening (occurrence in 3.2% of control animals pretreated with LY-404039 (n=154) versus in 99.5% of control rats not pretreated with LY-404039 (n=6335)).
In animals receiving apomorphine alone the median palpebral opening is 43 whereas in animals receiving apomorphine and LY-404039, the median palpebral opening is 17.

Assay [1] deals with rat hippocampal brain slices. As to the kind of experiment: Reversal of mGluR2-agonism (LY-354740-depressed fEPSP) in hippocampal brain slices. The assay is classed as cell-based. From the text:
7) Reversal of mGluR2-Agonism in Hippocampal Brain Slices Introduction
Electrophysiology recordings of field excitatory postsynaptic potentials (fEPSPs) in acute hippocampal brain slices represent a model for testing synaptic transmission and plasticity. The effect of Co. No. 1 on synaptic transmission and plasticity in dentate gyms synapses was investigated using this model.
Recordings of fEPSPs were made from hippocampal brain slices using a multi-electrode array (MEA) biochip, and 3-dimensional-(3D) tip electrodes, according to a standard protocol. These recordings were used to monitor glutamate-mediated synaptic transmission (FIG. 4).

With `Cc1cc(-c2cnn3c2C(=O)N(c2ccc(C(F)(F)F)cc2)C[C@@H]3C)ccn1` [compound 1, (7S)-7-Methyl-3-(2-methylpyridin-4-yl)-5-[4-(trifluoromethyl)phenyl]-6,7-dihydropyrazolo[1,5-a]pyrazin-4(5H)-one], the ED50 in the assay with rats (Route PO) stood at 0.45 mg/kg; with rats (Route SC) it was 3.54 mg/kg; in the assay on Male Wiga Wistar rats (Route PO), 0.45 mg/kg; with Male Wiga Wistar rats (Route SC), 0.3 mg/kg. In the assay with Male Long Evans rats (PCP 0.75 mg/kg s.c.), the “reversal effect against PCP observed up to the highest dose tested” value is given as no more than 10 mg/kg. Moreover, in the assay on Male Long Evans rats (PCP 0.75 mg/kg s.c. 30 min prior, doses 0.16 to 10 mg/kg evaluated), the “doses at which PCP-challenged rats showed again a clear preference for the new arm” value was no less than 0.32 mg/kg. Further, the “paired-pulse ratio (PPR)” value in assay [1] (10 μM Co. No. 1 after LY-354740 1 μM) is given as “decrease of the PPR”. For the same molecule, the “recovery of the LY-354740-induced depression of fEPSP” value in assay [1] (10 μM, fifteen min after application, LY-354740 1 μM, n=17 slices from 4 rats) was found to be 80%.
